Several values for one entry are separate records, joined by “and”; a condition that tells them apart may be missing. Equal values may be shown once. Toxic doses and inconclusive results are not listed.
Tested on: CD2F1 mice, L1210 leukemia ip, survival T/C
Assay: NCI In Vivo Anticancer Drug Screen. Data for tumor model L1210 Leukemia (intraperitoneal) in CD2F1 (CDF1) mice
Conditions: higher = longer survival
Outline: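 Each value reflects a quotient of treated over vehicle control outcomes in mice with a transplanted tumor.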

[1] = endpoint: mean survival time, dose: 12.5 mg/kg/injection, schedule: Q01DX005 (ip), vehicle: other
[2] = endpoint: mean survival time, dose: 25.0 mg/kg/injection, schedule: Q01DX005 (ip), vehicle: other
[3] = endpoint: mean survival time, dose: 50.0 mg/kg/injection, schedule: Q01DX005 (ip), vehicle: other
[4] = endpoint: mean survival time, dose: 100.0 mg/kg/injection, schedule: Q01DX005 (ip), vehicle: other
[5] = endpoint: mean survival time, dose: 200.0 mg/kg/injection, schedule: Q01DX005 (ip), vehicle: other

S=P(N1CC1)(N1CC1)N1CC1
T/C (endpoint: mean survival time, dose: 0.5 mg/kg/injection, schedule: Q01DX009 (ip), vehicle: saline): 112 % of control | T/C (endpoint: mean survival time, dose: 0.5 mg/kg/injection, schedule: Q03HX024 (ip), vehicle: saline): 112 % of control | T/C (endpoint: mean survival time, dose: 1.0 mg/kg/injection, schedule: Q01DX005 (iv), vehicle: saline): 101 % of control | T/C (endpoint: mean survival time, dose: 1.0 mg/kg/injection, schedule: Q01DX009 (ip), vehicle: saline): 96 % of control and 112 % of control | T/C (endpoint: mean survival time, dose: 1.0 mg/kg/injection, schedule: Q01DX009 (sc), vehicle: saline): 114 % of control | T/C (endpoint: mean survival time, dose: 1.0 mg/kg/injection, schedule: Q03HX008 (ip), vehicle: saline): 106 % of control | T/C (endpoint: mean survival time, dose: 1.0 mg/kg/injection, schedule: Q03HX016 (ip), vehicle: saline): 104 % of control | T/C (endpoint: mean survival time, dose: 1.5 mg/kg/injection, schedule: Q01DX009 (ip), vehicle: saline): 111 % of control | T/C (endpoint: mean survival time, dose: 2.0 mg/kg/injection, schedule: Q01DX005 (iv), vehicle: saline): 108 % of control | T/C (endpoint: mean survival time, dose: 2.0 mg/kg/injection, schedule: Q01DX009 (ip), vehicle: saline): 120 % of control and 122 % of control (2×) | T/C (endpoint: mean survival time, dose: 2.0 mg/kg/injection, schedule: Q03DX003 (ip), vehicle: saline): 112 % of control | T/C (endpoint: mean survival time, dose: 2.0 mg/kg/injection, schedule: Q03HX008 (ip), vehicle: saline): 118 % of control | T/C (endpoint: mean survival time, dose: 2.0 mg/kg/injection, schedule: Q03HX016 (ip), vehicle: saline): 117 % of control | T/C (endpoint: mean survival time, dose: 2.0 mg/kg/injection, schedule: Q03HX024 (ip), vehicle: saline): 88 % of control | T/C (endpoint: mean survival time, dose: 2.0 mg/kg/injection, schedule: Q04DX003 (ip), vehicle: saline): 101 % of control | T/C (endpoint: mean survival time, dose: 2.5 mg/kg/injection, schedule: Q04DX003 (ip), vehicle: saline): 101 % of control | T/C (endpoint: mean survival time, dose: 4.0 mg/kg/injection, schedule: Q01DX001 (iv), vehicle: saline): 117 % of control | T/C (endpoint: mean survival time, dose: 4.0 mg/kg/injection, schedule: Q01DX001 (sc), vehicle: saline): 103 % of control | T/C (endpoint: mean survival time, dose: 4.0 mg/kg/injection, schedule: Q01DX007 (ip), vehicle: saline): 158 % of control | T/C (endpoint: mean survival time, dose: 4.0 mg/kg/injection, schedule: Q01DX009 (ip), vehicle: saline): 154 % of control and 166 % of control and 171 % of control | T/C (endpoint: mean survival time, dose: 4.0 mg/kg/injection, schedule: Q01DX009 (oral), vehicle: saline): 122 % of control | T/C (endpoint: mean survival time, dose: 4.0 mg/kg/injection, schedule: Q04DX003 (ip), vehicle: saline): 120 % of control | T/C (endpoint: mean survival time, dose: 6.0 mg/kg/injection, schedule: Q01DX001 (ip), vehicle: saline): 115 % of control | T/C (endpoint: mean survival time, dose: 7.7 mg/kg/injection, schedule: Q01DX001 (ip), vehicle: saline with Tween-80): 112 % of control | T/C (endpoint: mean survival time, dose: 7.7 mg/kg/injection, schedule: Q01DX001 (ip), vehicle: saline): 123 % of control and 106 % of control | T/C (endpoint: mean survival time, dose: 8.0 mg/kg/injection, schedule: Q01DX001 (ip), vehicle: saline): 110 % of control | T/C (endpoint: mean survival time, dose: 8.0 mg/kg/injection, schedule: Q01DX001 (sc), vehicle: saline): 115 % of control | T/C (endpoint: mean survival time, dose: 8.0 mg/kg/injection, schedule: Q01DX007 (ip), vehicle: saline): 110 % of control | T/C (endpoint: mean survival time, dose: 8.0 mg/kg/injection, schedule: Q01DX009 (sc), vehicle: saline): 114 % of control | T/C (endpoint: mean survival time, dose: 8.0 mg/kg/injection, schedule: Q03DX003 (ip), vehicle: saline): 209 % of control | T/C (endpoint: mean survival time, dose: 8.0 mg/kg/injection, schedule: Q04DX003 (ip), vehicle: saline): 179 % of control and 183 % of control | T/C (endpoint: mean survival time, dose: 8.0 mg/kg/injection, schedule: Q08DX002 (ip), vehicle: saline): 122 % of control | T/C (endpoint: mean survival time, dose: 10.0 mg/kg/injection, schedule: Q04DX003 (ip), vehicle: saline): 153 % of control | T/C (endpoint: mean survival time, dose: 10.9 mg/kg/injection, schedule: Q01DX001 (ip), vehicle: saline with Tween-80): 122 % of control | T/C (endpoint: mean survival time, dose: 10.9 mg/kg/injection, schedule: Q01DX001 (ip), vehicle: saline): 122 % of control and 124 % of control | T/C (endpoint: mean survival time, dose: 12.0 mg/kg/injection, schedule: Q01DX001 (ip), vehicle: saline): 153 % of control | T/C (endpoint: mean survival time, dose: 15.0 mg/kg/injection, schedule: Q01DX001 (ip), vehicle: saline): 161 % of control | T/C (endpoint: mean survival time, dose: 16.0 mg/kg/injection, schedule: Q01DX001 (ip), vehicle: saline): 154 % of control | T/C (endpoint: mean survival time, dose: 16.0 mg/kg/injection, schedule: Q01DX001 (iv), vehicle: saline): 155 % of control | T/C (endpoint: mean survival time, dose: 16.0 mg/kg/injection, schedule: Q01DX009 (ip), vehicle: saline): 96 % of control | T/C (endpoint: mean survival time, dose: 16.0 mg/kg/injection, schedule: Q01DX009 (oral), vehicle: saline): 120 % of control | T/C (endpoint: mean survival time, dose: 16.0 mg/kg/injection, schedule: Q04DX003 (ip), vehicle: saline): 95 % of control | T/C (endpoint: mean survival time, dose: 20.0 mg/kg/injection, schedule: Q04DX003 (ip), vehicle: saline): 124 % of control | T/C (endpoint: mean survival time, dose: 22.4 mg/kg/injection, schedule: Q01DX001 (ip), vehicle: saline with Tween-80): 163 % of control | T/C (endpoint: mean survival time, dose: 32.0 mg/kg/injection, schedule: Q01DX001 (ip), vehicle: saline with Tween-80): 89 % of control | T/C (endpoint: mean survival time, dose: 32.0 mg/kg/injection, schedule: Q01DX001 (oral), vehicle: saline): 154 % of control | T/C (endpoint: median survival time, dose: 1.56 mg/kg/injection, schedule: Q01DX009 (ip), vehicle: saline): 117 % of control | T/C (endpoint: median survival time, dose: 3.0 mg/kg/injection, schedule: Q01DX009 (ip), vehicle: water): 97 % of control | T/C (endpoint: median survival time, dose: 3.13 mg/kg/injection, schedule: Q01DX009 (ip), vehicle: saline): 164 % of control and 178 % of control | T/C (endpoint: median survival time, dose: 6.0 mg/kg/injection, schedule: Q01DX009 (ip), vehicle: water): 95 % of control | T/C (endpoint: median survival time, dose: 8.0 mg/kg/injection, schedule: Q01DX009 (ip), vehicle: water): 88 % of control | T/C (endpoint: median survival time, dose: 12.5 mg/kg/injection, schedule: Q01DX009 (ip), vehicle: saline): 88 % of control and 107 % of control | T/C (endpoint: median survival time, dose: 16.0 mg/kg/injection, schedule: Q01DX009 (ip), vehicle: water): 77 % of control | T/C (endpoint: median survival time, dose: 20.0 mg/kg/injection, schedule: Q01DX001 (ip), vehicle: saline): 172 % of control | T/C (endpoint: median survival time, dose: 25.0 mg/kg/injection, schedule: Q01DX001 (ip), vehicle: saline): 193 % of control

c1ccc2sc(SSN3CC4CCC(CC4)C3)nc2c1
T/C (endpoint: mean survival time, dose: 12.5 mg/kg/injection, schedule: Q01DX009 (ip), vehicle: saline with Tween-80): 97 % of control and 108 % of control | T/C (endpoint: mean survival time, dose: 25.0 mg/kg/injection, schedule: Q01DX009 (ip), vehicle: saline with Tween-80): 93 % of control and 101 % of control | T/C (endpoint: mean survival time, dose: 50.0 mg/kg/injection, schedule: Q01DX009 (ip), vehicle: saline with Tween-80): 102 % of control and 103 % of control | T/C (endpoint: mean survival time, dose: 100.0 mg/kg/injection, schedule: Q01DX009 (ip), vehicle: saline with Tween-80): 101 % of control and 108 % of control | T/C (endpoint: mean survival time, dose: 200.0 mg/kg/injection, schedule: Q01DX009 (ip), vehicle: saline with Tween-80): 95 % of control and 108 % of control | T/C (endpoint: mean survival time, dose: 400.0 mg/kg/injection, schedule: Q01DX009 (ip), vehicle: saline with Tween-80): 103 % of control

Cn1c(=O)c2[nH]c(-c3ccc(Cl)cc3)nc2n(C)c1=O
T/C [1]: 89 % of control | T/C [2]: 89 % of control | T/C [3]: 93 % of control | T/C [4]: 89 % of control | T/C [5]: 95 % of control

COc1cccc(C(=O)O)c1C(=O)O
T/C [1]: 92 % of control | T/C [2]: 92 % of control | T/C [3]: 89 % of control | T/C [4]: 98 % of control | T/C [5]: 101 % of control | T/C (endpoint: mean survival time, dose: 400.0 mg/kg/injection, schedule: Q01DX005 (ip), vehicle: other): 96 % of control

O=S1(=O)CC(Cl)(Br)C1 (tested in a mixture with another compound)
T/C (endpoint: mean survival time, dose: 50.0 mg/kg/injection, schedule: Q01DX009 (ip), vehicle: Klucel (hydroxypropylcellulose) (HPC)): 92 % of control | T/C (endpoint: mean survival time, dose: 100.0 mg/kg/injection, schedule: Q01DX009 (ip), vehicle: Klucel (hydroxypropylcellulose) (HPC)): 107 % of control | T/C (endpoint: mean survival time, dose: 200.0 mg/kg/injection, schedule: Q01DX009 (ip), vehicle: Klucel (hydroxypropylcellulose) (HPC)): 103 % of control

Nc1ccc(N)c(N)n1
T/C (endpoint: mean survival time, dose: 6.25 mg/kg/injection, schedule: Q01DX009 (ip), vehicle: saline sonified): 105 % of control | T/C (endpoint: mean survival time, dose: 12.5 mg/kg/injection, schedule: Q01DX009 (ip), vehicle: saline sonified): 96 % of control | T/C (endpoint: mean survival time, dose: 25.0 mg/kg/injection, schedule: Q01DX009 (ip), vehicle: saline sonified): 108 % of control

O=C(COc1cc(Cl)c(Cl)cc1Cl)OCCN(CCOC(=O)COc1cc(Cl)c(Cl)cc1Cl)C(=O)COc1ccc(Cl)cc1
T/C (endpoint: mean survival time, dose: 100.0 mg/kg/injection, schedule: Q04DX003 (ip), vehicle: other): 93 % of control | T/C (endpoint: mean survival time, dose: 200.0 mg/kg/injection, schedule: Q04DX003 (ip), vehicle: other): 96 % of control | T/C (endpoint: mean survival time, dose: 400.0 mg/kg/injection, schedule: Q04DX003 (ip), vehicle: other): 107 % of control

CCOC(=O)c1ncn(C2OC(CO)C(O)C2O)c1N (stereo unspecified)
T/C (endpoint: mean survival time, dose: 12.5 mg/kg/injection, schedule: Q01DX005 (ip), vehicle: water): 97 % of control | T/C (endpoint: mean survival time, dose: 25.0 mg/kg/injection, schedule: Q01DX005 (ip), vehicle: water): 98 % of control | T/C (endpoint: mean survival time, dose: 50.0 mg/kg/injection, schedule: Q01DX005 (ip), vehicle: water): 103 % of control | T/C (endpoint: mean survival time, dose: 100.0 mg/kg/injection, schedule: Q01DX005 (ip), vehicle: water): 101 % of control | T/C (endpoint: mean survival time, dose: 200.0 mg/kg/injection, schedule: Q01DX005 (ip), vehicle: water): 97 % of control

From PubChem BioAssay AID256 (DTP/NCI, 2004)
